In patent EP0486749A1, “Triarylmethane compounds and pressure sensitive recording material” (HODOGAYA CHEMICAL CO., LTD., priority 1991, dated 1992):

Assays:
[1] = Color formation on silica gel (TLC) and light resistance of the formed color; settings: for light resistance: color formed on silica gel TLC
Procedure: The color in the Table is the color formed on silica gel.
To a dilute hydrochloric acid aqueous solution prepared by diluting 25 parts of 35% hydrochloric acid with 130 parts of water, 30 parts of 4,4'-bisdimethylaminobenzhydrol and 22 parts of methyl 3-dimethylaminobenzoate were dissolved and reacted at a temperature of from 50 to 60°C for 5 hours. Then, 10 parts of active carbon was added thereto, and the mixture was thoroughly mixed. After removing active carbon by filtration, 150 parts of 10% sodium hydroxide and 100 parts of toluene were added to the filtrate and thoroughly mixed. The toluene layer was separated, then washed with 100 parts of water and separated. Then, this toluene layer was thoroughly dried over anhydrous sodium salfate. Then, this toluene layer was concentrated, and 100 parts of methanol was added to the residue thereby obtained. Precipitated crystals were collected by filtration and recrystallized from a solvent mixture comprising 50 parts of methanol and 50 parts of acetone to obtain 35 parts of bis((4-dimethylamino)phenyl)-(2-methoxycarbonyl-4-dimethylaminophenyl)methane.

[2] = Solubility of the color former in oil (KMC-113); format: physicochemical; settings: in KMC-113 at 50°C
Text: To examine the solubility of a color former in oil, the solubility of benzoylleucomethylene blue in KMC-113 (product of Kureha Chemical Industries Co., Ltd.) as a typical solvent commonly employed, was investigated.
To examine the solubility in oil of the triarylmethane compounds of the present invention, the solubility in KMC-113 (product of Kureha Chemical Industries Co., Ltd.) as a typical solvent was examined.

| Structure (SMILES) | light resistance [1] | solubility [2] | color formed on silica gel TLC [1] |
| --- | --- | --- | --- |
| COC(=O)c1cc(N(C)C)ccc1C(c1ccc(N(C)C)cc1)c1ccc(N(C)C)cc1 [Preparation Example 1, bis((4-dimethylamino)phenyl)-(2-methoxycarbonyl-4-dimethylaminophenyl)methane] | excellent | at least 10% | gradually formed a clear blue color |
| CC(C)OC(=O)c1cc(N(C)C)ccc1C(c1ccc(N(C)C)cc1)c1ccc(N(C)C)cc1 [Preparation Example 2, bis((4-dimethylamino)phenyl)-(2-isopropoxycarbonyl-4-dimethylaminophenyl)methane] | excellent | at least 10% | gradually formed a clear blue color |
| CCCCOC(=O)c1cc(N(C)C)ccc1C(c1ccc(N(C)C)cc1)c1ccc(N(C)C)cc1 [Preparation Example 3, bis((4-dimethylamino)phenyl)-(2-n-butoxycarbonyl-4-dimethylaminophenyl)methane] | excellent | at least 10% | gradually formed a clear blue color |

More lines, main results first:

| light resistance [1] | solubility [2] | Structure (SMILES) | color formed on silica gel TLC [1] |
| --- | --- | --- | --- |
| excellent |  | COC(=O)c1cc(N(C)C)ccc1C(c1ccc(N(C)C)cc1C)c1ccc(N(C)C)cc1C [Preparation Example 4, bis((2-methyl-4-dimethylamino)phenyl)-(2-methoxycarbonyl-4-dimethylaminophenyl)methane] | gradually formed a clear blue color |
|  | 2.5% | CN(C)c1ccc2c(c1)Sc1cc(N(C)C)ccc1N2C(=O)c1ccccc1 [benzoylleucomethylene blue, reference compound] |  |
| excellent |  | CCOC(=O)c1cc(N(C)C)ccc1C(c1ccc(N(C)C)cc1C)c1ccc(N(C)C)cc1C [Preparation Example 5, bis((2-methyl-4-dimethylamino)phenyl)-(2-ethoxycarbonyl-4-dimethylaminophenyl)methane] | gradually formed a clear blue color |
